From patent US20130344595A1, “CULTURE MEDIA FOR DEVELOPMENTAL CELLS CONTAINING ELEVATED CONCENTRATIONS OF LIPOIC ACID” (Vitrolife Sweden AB, priority 2007, published 2013)
Marks after values point to notes of the source that are not given here.

Assays:
[1] = test system: 8-cell hamster embryos; settings: omission from Ham's F10 medium; cited from earlier work
[2] = test system: human embryos; experiment: Human embryo development in G1 medium with 10 μM lipoic acid (Example 5); format: cell-based; settings: G1 medium with 10 μM lipoic acid versus G1 free of lipoic acid
Method: In accordance with the present invention, the effect of lipoic acid-containing culture media on human embryo development is examined. Good prognosis patients have half of their embryos cultured in G1 culture media free of lipoic acid (i.e., the control), while the other half are cultured in G1 medium containing 10 μM lipoic acid (i.e., the elevated lipoic acid medium).

[3] = test system: rabbit morulae; settings: omission from Ham's F10 medium; cited from earlier work
[4] = test system: CF1 mouse zygote; experiment: Effective concentration range of lipoic acid on mouse zygote development at 20% oxygen (Example 3); format: cell-based; settings: for Day 3 (% compacting) / Day 4 (% Total Blast) / Day 5 (% Hatching) / Day 5 (% Total Blast) / Total Cell Number: 20% oxygen
Description: The effective range of lipoic acid concentrations to enhance blastocyst development and cell number was established using CF1 mouse embryos.

[5] = test system: CF1 mouse embryos; experiment: Blastocyst development and cell number of mouse embryos cultured with lipoic acid at 20% or 5% O2 (Example 1); format: cell-based
Method: The following procedure was carried out. Lipoic acid was dissolved in ethanol. A 100 mM working solution in 100% EtOH was prepared with appropriate dilutions made to the culture media thereafter (1 μM, 10 μM and 100 μM final concentrations). A vehicle control, equivalent to the dilution of the highest concentration solution (0.1%), was used in all culture experiments. Zygotes were collected from 4-week-old CF1 outbred female mice. Cumulus-enclosed zygotes were collected at 21 h post hCG and denuded with 1 mg/mL hyaluronidase in G-MOPS supplemented with 5 mg/mL human serum albumin. Cultures were incubated at either 5% or 20% O2. After four days of culture, blastocyst development was analyzed and cell number was counted in 200 cultured embryos per treatment.
The results are shown in FIGS. 1 (20% O2) and 2 (5% O2). The data are based on 200 embryos cultured per study. […] Furthermore, the beneficial effect of lipoic acid was lost at higher concentrations. […] The data for FIGS. 1 and 2 are presented in Tables 6 and 7, respectively, which also provide the results for the trophectoderm, inner cell mass (ICM) and ICM ratio.

[6] = test system: reactive oxygen species (ROS); experiment: ROS generation in culture medium by UV photo-oxidation, H2DFFDA fluorescent dye (Example 4); settings: all concentrations; compared to vehicle group; UV photo-oxidation in GMOPS-Plus
Method: In order to determine whether the lipoic acid is having an antioxidant effect, a series of experiments were performed using the fluorescent dye […] (H2DFFDA), which reacts with reactive oxygen species (ROS) intermediates. 200 μM H2DFFDA in DMSO was added to GMOPS-Plus (available from Vitrolife). Lipoic acid dissolved in EtOH with the final concentration within the media being 0.1% EtOH. Each drop was then photo-oxidized with 4 successive 2.5 minute exposures using UV light to generate ROS.
All results are based on comparison to the vehicle group ([…]), which was not significant in comparison to the control group.

[7] = test system: CF1 mouse embryos; experiment: Sequential G1/G2 culture of mouse embryos, G1 with or without 10 μM lipoic acid (Example 2); format: cell-based; settings: low O2
Method: CF1 mouse embryos were grown in either G1 alone or G1 plus 10 μM lipoic acid. After 48 hours, embryos from both treatment groups were moved to G2. All cultures were incubated in low O2. Compaction rates were assessed and blastocyst developmental rates were measured at 71 and 78 hours. Blastocysts were then differentially stained and counted.

[8] = G1 + 10 μM LA for 48 hours, then G2

## O=C(O)CCCC[C@@H]1CCSS1 (racemic) [lipoic acid]
[1]
  effect of omission of lipoic acid on development of 8-cell hamster embryos: no significant effect on the development at any stage of culture
[2]
  human embryo development up to the 8-cell and blastocyst stage: Embryos develop quicker up to the 8-cell and blastocyst stage
[3]
  effect of omission of lipoic acid on culture of rabbit morulae to expanded blastocysts: no significant effect
[4]; 5 μM LA
  Day 3 (% compacting): 38.9%
  Day 4 (% Total Blast): 51.6%
  Day 5 (% Hatching): 40.9%
  Day 5 (% Total Blast): 81.8%
  Total Cell Number: 90.2 ± 4.8
[4]; 10 μM LA
  Day 3 (% compacting): 51.4%
  Day 4 (% Total Blast): 62.9%
  Day 5 (% Hatching): 40.0%
  Day 5 (% Total Blast): 92.7%
  Total Cell Number: 91.3 ± 4.7
[4]; 20 μM LA
  Day 3 (% compacting): 26.5%
  Day 4 (% Total Blast): 42.9%
  Day 5 (% Hatching): 31.3%
  Day 5 (% Total Blast): 73.1%
  Total Cell Number: 94.0 ± 7.2
[4]; 40 μM LA
  Day 3 (% compacting): 22.9%
  Day 4 (% Total Blast): 37.3%
  Day 5 (% Hatching): 28.4%
  Day 5 (% Total Blast): 74.6%
  Total Cell Number: 69.4 ± 5.8
[4]; 80 μM LA
  Day 3 (% compacting): 22.9%
  Day 4 (% Total Blast): 4.6%
  Day 5 (% Hatching): 9.4%
  Day 5 (% Total Blast): 29.7%
  Total Cell Number: 34.0
[4]; above 5 to 40 μM
  blastocyst development by day 5 and cell number relative to the control: lower blastocyst development by day 5 and lower cell number relative to the control
[4]; lipoic acid at less than 5 μM
  effect on progression to blastocyst stage, blastocyst cell number and inner cell mass: little, if any, effect
[4]; lipoic acid greater than about 40 μM
  day 4 blastocyst development and cell numbers: lower day 4 blastocyst development and decreased cell numbers
[4]; within the range 5 μM to 40 μM
  concentration of maximum improvement to embryo development: approximately 10 μM
[5]; 1 μM lipoic acid, at either 5% or 20% oxygen
  blastocyst cell number: no statistically significant increase in cell number
[5]; 10 μM lipoic acid, outbred (CF1) mouse embryos
  blastocyst cell number: significantly higher cell number
[5]; 100 μM lipoic acid
  blastocyst cell number versus control medium: significantly lower cell numbers
[5]; lipoic acid 1 μM, 5% O2
  Day 5 % Blast: 76.15%
  ICM: 16.83
  ICM ratio: 19.71%
  total cell #: 85.40
  trophectoderm: 68.57
[5]; lipoic acid 1 μM, 20% O2
  Day 5 % Blast: 59.18%
  ICM: 13.07
  ICM ratio: 19.12%
  total cell #: 68.37
  trophectoderm: 55.30
[5]; lipoic acid 10 μM, 5% O2
  Day 5 % Blast: 76.74%^#
  ICM: 22.49^####
  ICM ratio: 22.10%
  total cell #: 101.77^###
  trophectoderm: 79.28^##
[5]; lipoic acid 10 μM, 20% O2
  Day 5 % Blast: 61.47%^‡
  ICM: 16.4731^‡‡‡‡
  ICM ratio: 21.25%
  total cell #: 77.527^‡‡‡
  trophectoderm: 61.054^‡‡
[5]; lipoic acid 100 μM, 5% O2
  Day 5 % Blast: 53.13%
  ICM: 13.61
  ICM ratio: 18.33%
  total cell #: 74.21
  trophectoderm: 60.61
[5]; lipoic acid 100 μM, 20% O2
  Day 5 % Blast: 42.57%
  ICM: 10.2916
  ICM ratio: 19.07%
  total cell #: 53.9583
  trophectoderm: 43.6667
[6]
  generation of ROS within the culture media: concentration-dependent decrease in the generation of reactive oxygen
[7]; 10 μM lipoic acid added to G1
  inner cell mass number and percentage inner cell mass of total: increased inner cell mass number and percentage inner cell mass of total
[7]; [8]
  % Expanded on Day 4: 39.7%
  % ICM: 31%**
  Day 3 % a.m.: 81.0%
  Day 4 blast % a.m.: 22.4%
  Day 4 blast % p.m.: 65.5%
  ICM: 16 ± 1
  TE: 34 ± 2
  Total: 50 ± 2
